# According to ChEMBL document CHEMBL5230129, “Antibacterial activities with the structure-activity relationship of coumarin derivatives” (2020):
# How the values were obtained:
# Type in all cases: functional
# [1] = system: Staphylococcus aureus; test: Antibacterial activity against Staphylococcus aureus NCTC-7447 assessed as zone of inhibition incubated for 24 hrs by paper disk diffusion assay
# [2] = system: Escherichia coli; test: Antibacterial activity against Escherichia coli ATCC 25922 assessed as zone of inhibition incubated for 24 hrs by paper disk method; also: test concentration or dose not given here
# [3] = system: Pseudomonas aeruginosa; test: Antibacterial activity against Pseudomonas aeruginosa ATCC 27853 assessed as zone of inhibition incubated for 24 hrs by paper disk method; also: test concentration or dose not given here
# [4] = system: Staphylococcus aureus; test: Antibacterial activity against Staphylococcus aureus ATCC 25923 assessed as zone of inhibition incubated for 24 hrs by paper disk method
# [5] = system: Bacillus subtilis; test: Antibacterial activity against Bacillus subtilis ATCC 10876 assessed as zone of inhibition incubated for 24 hrs by paper disk method
# [6] = system: Klebsiella pneumoniae; test: Antibacterial activity against Klebsiella pneumoniae assessed as zone of inhibition incubated for 24 hrs by disk diffusion assay; as to IZ: test concentration or dose not given here
# [7] = system: Micrococcus luteus; test: Antibacterial activity against Micrococcus luteus ATCC 9341 assessed as inhibition of bacterial growth incubated for 20 hrs by broth doubling dilution assay
# [8] = system: Staphylococcus epidermidis; test: Antibacterial activity against Staphylococcus epidermidis ATCC 12228 assessed as inhibition of bacterial growth incubated for 20 hrs by broth doubling dilution assay
# [9] = system: Bacillus cereus; test: Antibacterial activity against Bacillus cereus ATCC 10702 assessed as inhibition of bacterial growth incubated for 20 hrs by broth doubling dilution assay
# [10] = system: Bacillus subtilis; test: Antibacterial activity against Bacillus subtilis assessed as inhibition of bacterial growth relative to control
# [11] = system: Escherichia coli; test: Antibacterial activity against Escherichia coli assessed as inhibition of bacterial growth relative to control
# [12] = system: Pseudomonas aeruginosa; test: Antibacterial activity against Pseudomonas aeruginosa assessed as zone of inhibition incubated for 24 to 48 hrs by agar well diffusion assay; conditions: time 24-48 hrs
# [13] = system: Staphylococcus aureus; test: Antibacterial activity against Staphylococcus aureus assessed as zone of inhibition incubated for 24 to 48 hrs by agar well diffusion assay; conditions: time 24-48 hrs
# [14] = system: Pseudomonas aeruginosa; test: Antibacterial activity against Pseudomonas aeruginosa assessed as inhibition of bacterial growth incubated for 24 hrs by broth microdilution assay
# [15] = system: Staphylococcus aureus; test: Antibacterial activity against Staphylococcus aureus ATCC-29213 assessed as inhibition of bacterial growth incubated for 16 hrs by agar-well diffusion assay
# [16] = system: Escherichia coli; test: Antibacterial activity against Escherichia coli MTCC 40 assessed as inhibition of bacterial growth incubated for 24 hrs by well-plate method
# [17] = system: Staphylococcus aureus; test: Antibacterial activity against Staphylococcus aureus MTCC 121 assessed as inhibition of bacterial growth incubated for 24 hrs by well-plate method
# [18] = system: Escherichia coli; test: Antibacterial activity against Escherichia coli MTCC 40 assessed as zone of inhibition incubated for 24 hrs by well-plate method; also: test concentration or dose not given here
# [19] = system: Staphylococcus aureus; test: Antibacterial activity against Staphylococcus aureus MTCC 121 assessed as zone of inhibition incubated for 24 hrs by well-plate method
# [20] = system: Escherichia coli; test: Antibacterial activity against Escherichia coli assessed as zone of inhibition incubated for 24 hrs by well-diffusion method
# [21] = system: Pseudomonas aeruginosa; test: Antibacterial activity against Pseudomonas aeruginosa assessed as zone of inhibition incubated for 24 hrs by well-diffusion method
# [22] = system: Staphylococcus aureus; test: Antibacterial activity against Staphylococcus aureus assessed as zone of inhibition incubated for 24 hrs by well-diffusion method
# [23] = system: Micrococcus luteus; test: Antibacterial activity against Micrococcus luteus assessed as zone of inhibition incubated for 24 hrs by well-diffusion method
# [24] = system: Escherichia coli; test: Antibacterial activity against Escherichia coli MTCC 1586 assessed as zone of inhibition incubated overnight by Kirby-Bauer disc diffusion method
# [25] = system: Staphylococcus aureus; test: Antibacterial activity against Staphylococcus aureus MTCC 740 assessed as zone of inhibition incubated overnight by Kirby-Bauer disc diffusion method
# [26] = system: Bacillus cereus; test: Antibacterial activity against Bacillus cereus MTCC 430 assessed as zone of inhibition incubated overnight by Kirby-Bauer disc diffusion method
compound,measurement,setting,value
O=c1oc2ccccc2c(O)c1-c1cc[nH]n1,inhibition zone (IZ),[1],10 mm
NCC[C@H](O)C(=O)N[C@@H]1C[C@H](N)[C@@H](O[C@H]2O[C@H](CN)[C@@H](O)[C@H](O)[C@H]2O)[C@H](O)[C@H]1O[C@H]1O[C@H](CO)[C@@H](O)[C@H](N)[C@H]1O [AMIKACIN],inhibition zone (IZ),[2],17 mm
same,inhibition zone (IZ),[3],17 mm
same,inhibition zone (IZ),[4],20 mm
same,inhibition zone (IZ),[5],18 mm
COc1ccc(CNC(=O)COc2cc(=O)oc3ccccc23)c(OC)c1,inhibition zone (IZ),[2],13 mm
same,inhibition zone (IZ),[3],12 mm
same,inhibition zone (IZ),[4],10 mm
GENTAMICIN,inhibition zone (IZ),[6],16 mm
Cc1c(O)c(C(=O)CCc2ccccc2)c2oc(=O)cc(-c3ccccc3)c2c1O,MIC,[7],2 µg/mL
same,MIC,[8],1 µg/mL
same,MIC,[9],2 µg/mL
COC(=O)c1nnn(CC(=O)c2cc3cc(Cl)ccc3oc2=O)c1C(=O)OC,inhibition (INH),[10],83.3%
same,inhibition (INH),[11],83.3%
COc1cccc(/C=C/C(=O)/C=C/c2ccc(COc3cn(CCOc4cc(=O)oc5ccccc45)nn3)cc2OC)c1,inhibition zone (IZ),[12],7 mm
same,inhibition zone (IZ),[13],8 mm
Cc1cc(=O)oc2cc(OCc3nnc(Nc4ccc(Br)cc4)s3)ccc12,inhibition zone (IZ),[6],16 mm
C[C@H]1COc2c(N3CCN(C)CC3)c(F)cc3c(=O)c(C(=O)O)cn1c23.C[C@H]1COc2c(N3CCN(C)CC3)c(F)cc3c(=O)c(C(=O)O)cn1c23.O [LEVOFLOXACIN],MIC,[14],3.12 µg/mL
CC(C)(C)NC(=O)c1c(-c2ccccc2)nc(SCc2cc(=O)oc3ccc4ccccc4c23)[nH]c1=O,MIC,[15],2.5 µg/mL
COc1cc(COc2cn(CCOc3cc(=O)oc4ccccc34)nn2)ccc1/C=C/C(=O)/C=C/c1cc(OC)c(OC)c(OC)c1,inhibition zone (IZ),[13],7 mm
CN[C@@H]1[C@H](O[C@H]2[C@H](O[C@H]3[C@H](O)[C@@H](O)[C@H](N=C(N)N)[C@@H](O)[C@@H]3N=C(N)N)O[C@@H](C)[C@]2(O)C=O)O[C@@H](CO)[C@H](O)[C@H]1O [STREPTOMYCIN],MIC,[16],12.5 µg/mL
same,MIC,[17],12.5 µg/mL
same,inhibition zone (IZ),[18],22 mm
same,inhibition zone (IZ),[19],20 mm
COC(=O)c1nnn(CC(=O)c2cc3cc(C)ccc3oc2=O)c1C(=O)OC,inhibition (INH),[10],83.3%
same,inhibition (INH),[11],83.3%
COc1cc(COc2cn(CCOc3cc(=O)oc4ccccc34)nn2)ccc1/C=C/C(=O)/C=C/c1ccc(OC)c(OC)c1,inhibition zone (IZ),[12],7 mm
same,inhibition zone (IZ),[13],8 mm
O=c1oc2ccccc2c(O)c1C(c1c(Cl)cccc1Cl)c1c(O)c2ccccc2oc1=O,inhibition zone (IZ),[20],10 mm
same,inhibition zone (IZ),[21],10 mm
same,inhibition zone (IZ),[22],10 mm
same,inhibition zone (IZ),[23],10 mm
CC[N+](CC)(CC)CCCCCCCCCCCCNCc1cn(Cc2cc(=O)oc3cc4c(cc23)CCC(C)(C)O4)nn1.[Br-],inhibition zone (IZ),[24],8 mm
same,inhibition zone (IZ),[25],6 mm
same,inhibition zone (IZ),[26],24 mm
O=c1oc2ccccc2cc1-c1nn(-c2ccccc2)cc1/C=N/Nc1nc(-c2ccccc2)cs1,inhibition zone (IZ),[18],19 mm
CO/N=C(\C(=O)N[C@@H]1C(=O)N2C(C(=O)O)=C(COC(N)=O)CS[C@H]12)c1ccco1 [CEFUROXIME],MIC,[14],98 µg/mL
